We go through 18 compounds from patent US20090099195A1 (ASTRAZENECA AB, priority 2007, published 2009).

Assay [1] addresses T1, hP2X3 (human Purinergic P2X receptors subtype 3), clone A (Homo sapiens, UniProt P56373).
T1 sequence (P56373 1-397): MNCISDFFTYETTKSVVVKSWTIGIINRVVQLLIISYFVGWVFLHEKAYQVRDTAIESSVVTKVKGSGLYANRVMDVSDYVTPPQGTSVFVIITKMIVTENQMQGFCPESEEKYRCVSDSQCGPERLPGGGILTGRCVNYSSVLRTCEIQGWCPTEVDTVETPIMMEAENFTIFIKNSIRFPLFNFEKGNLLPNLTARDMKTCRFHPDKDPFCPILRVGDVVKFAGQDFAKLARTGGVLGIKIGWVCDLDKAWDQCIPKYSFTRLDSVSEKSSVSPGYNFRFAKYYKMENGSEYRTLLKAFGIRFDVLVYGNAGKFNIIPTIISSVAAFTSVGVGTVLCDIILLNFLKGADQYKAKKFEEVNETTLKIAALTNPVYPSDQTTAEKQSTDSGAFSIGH
The assay can be described thus: hP2X3 FLIPR calcium (Fluo-4) antagonist assay, clone A. The note with it: Human P2X3 FLIPR Clone A Mean IC50 (nM), RLE cells expressing hP2X3 clone A (AB016608); agonist 500 nM α,β-methylene-ATP.

Assay [2] has as its target T2, hP2X3 (human Purinergic P2X receptors subtype 3), clone B (Homo sapiens, UniProt P56373).
T2 sequence (P56373 1-397): T1 sequence (P56373 1-397)
Briefly: hP2X3 FLIPR calcium (Fluo-4) antagonist assay, clone B. Particulars: Human P2X3 FLIPR Clone B IC50 (nM), RLE cells expressing hP2X3 clone B (NM_002559); agonist 500 nM α,β-methylene-ATP.
Procedure: The assay used a calcium indicator dye (Fluo-4) that emits fluorescence, the intensity of which is related to the concentration of calcium that entered the cell when P2X3 was activated and the channel opened. Activation of hP2X3 or rat P2X3 and rat P2X2/3 (from the coexpression of rat P2X3 and rat P2×2) is elicited the by P2X3 agonist α,β methylene-ATP (Sigma M6517), and the resulting fluorescence is measured with a FLIPR II™ instrument (Molecular Devices). Compounds are tested for their ability to inhibit the agonist-induced fluorescent signal.
For the rat P2X2/3 HEK-TREX cells, induction of the rat P2X3 expression is used to generate the rat P2X2/3 channels in HEK-TREX cells and performed by addition of 1 μg/mL tetracycline (Invitrogen) 24 h prior to compounds testing to the HEK-TREX expressing the rat P2X2 constitutively. On the day of the experiment, the cells and test compounds are prepared as follows. […] After preparing the compounds, the medium is removed from the cell plates by inversion. A loading solution of 30 μL assay buffer containing 4 μM of the calcium indicator dye FLUO-4 AM (Molecular Probes F14202) is added to each well using a Multidrop (Labsystems). […] The incubation is terminated by washing the cells four times in assay buffer using a Skatron Embla (Molecular Devices), and 25 μL of assay buffer was left in each well. Cell plates are then transferred to the FLIPR. Experiments are initiated by measuring a baseline fluorescence reading for 10 seconds, followed by the addition of 12.5 μL of cpds and data sampling for a total 280 seconds. The experiments are terminated by addition of 12.5 μL of a reference agonist (500 nM α,β-methylene-ATP) or buffer, producing a final assay volume of 50 μL followed by data sampling for an additional 280 seconds.
In P2X3 antagonist experiments (human and rat assays) data are analysed as normalised maximal peak fluorescence monitored following agonist addition and calculated as percent of relative fluorescent counts from control agonist. The dose-response antagonist inhibition curves are analyzed in a 4-parameter sigmoidal fit using a non-linear curve-fitting program (XLfit version 5.0.6, ID Business Solutions Limited, Guildford, UK).

In the case of `CCN(c1nc(N2CCN(C(C)=O)CC2)nc2c1CN(C(C)C)C2=O)C(C)c1ccc2ncccc2c1` (single isomer, unassigned) [Example 257, 2-(4-acetylpiperazin-1-yl)-4-(ethyl(1-(quinolin-6-yl)ethyl)amino)-6-isopropyl-5H-pyrrolo[3,4-d]pyrimidin-7(6H)-one], the values for the 50% inhibitory concentration (IC50) in assay [1] and in assay [2] were 83.2 nM and 80 nM, respectively.

For `CCN(c1nc(N2CCN(C(C)=O)CC2)nc2c1CN(C(C)C)C2=O)C(C)c1ccc2ncccc2c1` (single isomer, unassigned) [Example 258, 2-(4-acetylpiperazin-1-yl)-4-(ethyl(1-(quinolin-6-yl)ethyl)amino)-6-isopropyl-5H-pyrrolo[3,4-d]pyrimidin-7(6H)-one], the IC50 in assay [1] is 232 nM; in assay [2], 250 nM.

As for `CC(=O)N1CCN(c2nc3c(c(N(C)C(C)c4ccc5ncccc5c4)n2)CN(C(C)C)C3=O)CC1` (single isomer, unassigned) [Example 260, 2-(4-acetylpiperazin-1-yl)-6-isopropyl-4-(methyl(1-(quinolin-6-yl)ethyl)amino)-5H-pyrrolo[3,4-d]pyrimidin-7(6H)-one], the IC50 in assay [1] is 1900 nM; in assay [2] it was 2300 nM.

On to `CC(=O)N1CCN(c2nc3c(c(N(C)C(C)c4ccc5ncccc5c4)n2)CN(C(C)C)C3=O)CC1` (single isomer, unassigned) [Example 261, 2-(4-acetylpiperazin-1-yl)-6-isopropyl-4-(methyl(1-(quinolin-6-yl)ethyl)amino)-5H-pyrrolo[3,4-d]pyrimidin-7(6H)-one], for which the results for the half-maximal inhibitory concentration (IC50) in assay [1] and in assay [2] were 71.1 nM and 64 nM, respectively.

Turning to `CCC(C)N1Cc2c(nc(N3CCN(C(C)=O)CC3)nc2N(CC)Cc2cc3ccccc3cn2)C1=O` (single isomer, unassigned) [Example 317, 2-(4-acetylpiperazin-1-yl)-4-[ethyl(isoquinolin-3-ylmethyl)amino]-6-(1-methylpropyl)-5,6-dihydro-7H-pyrrolo[3,4-d]pyrimidin-7-one], the figures for the IC50 in assay [1] and in assay [2] were 40 nM and 32 nM, respectively.

As for `CCC(C)N1Cc2c(nc(N3CCN(C(C)=O)CC3)nc2N(CC)Cc2cc3ccccc3cn2)C1=O` (single isomer, unassigned) [Example 318, 2-(4-acetylpiperazin-1-yl)-4-[ethyl(isoquinolin-3-ylmethyl)amino]-6-(1-methylpropyl)-5,6-dihydro-7H-pyrrolo[3,4-d]pyrimidin-7-one], the figures for the IC50 in assay [1] and in assay [2] were 43 nM and 41 nM, respectively.

`CCOc1ccc([C@H](CO)Nc2nc(N3CCN(C(C)=O)CC3)nc3c2CN(C(C)C)C3=O)cc1` [Example 180, (R)-2-(4-acetylpiperazin-1-yl)-4-(1-(4-ethoxyphenyl)-2-hydroxyethylamino)-6-isopropyl-5H-pyrrolo[3,4-d]pyrimidin-7(6H)-one]: the values for the IC50 in assay [1] and in assay [2] were 7120 nM and 5800 nM, respectively.

`CC(=O)N1CCN(c2nc(N[C@H](C)c3cccc(OC(F)F)c3)c3c(n2)C(=O)N(C(C)C)C3)CC1` [Example 181, (R)-2-(4-acetylpiperazin-1-yl)-4-(1-(3-(difluoromethoxy)phenyl)ethylamino)-6-isopropyl-5H-pyrrolo[3,4-d]pyrimidin-7(6H)-one]: the values for the IC50 in assay [1] and in assay [2] were 175 nM and 320 nM, respectively.

Take `CC(=O)N1CCN(c2nc(N[C@H](C)c3ccc(C(F)(F)F)c(F)c3)c3c(n2)C(=O)N(C(C)C)C3)CC1` [Example 182, (R)-2-(4-acetylpiperazin-1-yl)-4-(1-(3-fluoro-4-(trifluoromethyl)phenyl)ethylamino)-6-isopropyl-5H-pyrrolo[3,4-d]pyrimidin-7(6H)-one]: the results for the IC50 in assay [1] and in assay [2] were 271 nM and 240 nM, respectively.

Take `CC(=O)N1CCN(c2nc(N[C@H](C)c3cc(C(F)(F)F)ccc3F)c3c(n2)C(=O)N(C(C)C)C3)CC1` [Example 183, (R)-2-(4-acetylpiperazin-1-yl)-4-(1-(2-fluoro-5-(trifluoromethyl)phenyl)ethylamino)-6-isopropyl-5H-pyrrolo[3,4-d]pyrimidin-7(6H)-one]: the IC50 in assay [1] amounted to 199 nM; in assay [2], 170 nM.

For the compound `CC(=O)N1CCN(c2nc(N[C@H](C)c3cc(F)cc(C(F)(F)F)c3)c3c(n2)C(=O)N(C(C)C)C3)CC1` [Example 184, (R)-2-(4-acetylpiperazin-1-yl)-4-(1-(3-fluoro-5-(trifluoromethyl)phenyl)ethylamino)-6-isopropyl-5H-pyrrolo[3,4-d]pyrimidin-7(6H)-one], the IC50 in assay [1] came to 101 nM; in assay [2] it was 87 nM.

As for `CCOc1ccc([C@H](Nc2nc(N3CCN(C(C)=O)CC3)nc3c2CN(C(C)C)C3=O)C2CC2)cc1` [Example 185, (R)-2-(4-acetylpiperazin-1-yl)-4-(cyclopropyl(4-ethoxyphenyl)methylamino)-6-isopropyl-5H-pyrrolo[3,4-d]pyrimidin-7(6H)-one], the IC50 turned out to be 79.7 nM in assay [1] and 74 nM in assay [2].

For the compound `CC(=O)N1CCN(c2nc(N[C@H](C)c3ccc(C(F)(F)F)cc3F)c3c(n2)C(=O)N(C(C)C)C3)CC1` [Example 186, (R)-2-(4-acetylpiperazin-1-yl)-4-(1-(2-fluoro-4-(trifluoromethyl)phenyl)ethylamino)-6-isopropyl-5H-pyrrolo[3,4-d]pyrimidin-7(6H)-one], the values for the IC50 in assay [1] and in assay [2] were 138 nM and 100 nM, respectively.

For `CC(=O)N1CCN(c2nc(N[C@H](C)c3cccc(C(F)(F)F)c3F)c3c(n2)C(=O)N(C(C)C)C3)CC1` [Example 187, (R)-2-(4-acetylpiperazin-1-yl)-4-(1-(2-fluoro-3-(trifluoromethyl)phenyl)ethylamino)-6-isopropyl-5H-pyrrolo[3,4-d]pyrimidin-7(6H)-one], the IC50 in assay [1] came to 117 nM; in assay [2], 96 nM.

With `CC(=O)N1CCN(c2nc(N[C@H](C)c3ccc(F)c(C(F)(F)F)c3)c3c(n2)C(=O)N(C(C)C)C3)CC1` [Example 188, (R)-2-(4-acetylpiperazin-1-yl)-4-(1-(4-fluoro-3-(trifluoromethyl)phenyl)ethylamino)-6-isopropyl-5H-pyrrolo[3,4-d]pyrimidin-7(6H)-one], the IC50 in assay [1] came to 174 nM; in assay [2] it was 140 nM.

Consider `CCOc1ccc([C@@H](CO)Nc2nc(N3CCN(C(C)=O)CC3)nc3c2CN(C(C)C)C3=O)cc1` [Example 189, (S)-2-(4-acetylpiperazin-1-yl)-4-(1-(4-ethoxyphenyl)-2-hydroxyethylamino)-6-isopropyl-5H-pyrrolo[3,4-d]pyrimidin-7(6H)-one], for which the IC50 in assay [1] was 76.6 nM; in assay [2] it was 79 nM.

On to `CCOc1ccc([C@@H](C)Nc2nc(N3CCN(CC(F)(F)F)C(=O)C3)nc3c2CN(C(C)C)C3=O)cc1` [Example 363, (R)-4-(1-(4-ethoxyphenyl)ethylamino)-6-isopropyl-2-(3-oxo-4-(2,2,2-trifluoroethyl)piperazin-1-yl)-5H-pyrrolo[3,4-d]pyrimidin-7(6H)-one], for which the IC50 in assay [1] worked out at 574 nM.

As to `CC(C)N1Cc2c(nc(N3CCN(CC(F)(F)F)C(=O)C3)nc2N(C)Cc2cc3ccccc3cn2)C1=O` [Example 364, 6-isopropyl-4-((isoquinolin-3-ylmethyl)(methyl)amino)-2-(3-oxo-4-(2,2,2-trifluoroethyl)piperazin-1-yl)-5H-pyrrolo[3,4-d]pyrimidin-7(6H)-one], the IC50 in assay [1] was 795 nM.
